The source of these data is patent publication US12503436B2, “Compounds and compositions for treating conditions associated with STING activity” (NOVARTIS PHARMA AG, priority 2021, dated 2025).

SMILES strings stand for the structures.

Chain of STING (Q86WV6 whole entry R71H/G230A/H232R/R293Q): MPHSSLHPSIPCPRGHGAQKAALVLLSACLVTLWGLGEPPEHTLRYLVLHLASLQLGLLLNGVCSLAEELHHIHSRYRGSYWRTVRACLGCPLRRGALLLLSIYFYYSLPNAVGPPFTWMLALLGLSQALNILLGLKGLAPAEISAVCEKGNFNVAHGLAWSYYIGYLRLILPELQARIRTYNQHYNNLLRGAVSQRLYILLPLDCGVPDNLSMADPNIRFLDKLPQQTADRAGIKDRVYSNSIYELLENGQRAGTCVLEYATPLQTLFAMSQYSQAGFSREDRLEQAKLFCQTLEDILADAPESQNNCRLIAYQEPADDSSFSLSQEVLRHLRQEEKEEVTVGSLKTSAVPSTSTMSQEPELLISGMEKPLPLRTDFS

This assay has as its target STING (Homo sapiens, UniProt Q86WV6, G230A/H232R/R293Q/R71H). Kind of assay: STING reporter assay in THP1-Dual KO-IFNAR2 cells (2′3′cGAMP stimulation, luciferase reporter). The format is cell-based. The settings on record: 15 μM 2′3′cGAMP stimulation, 24 h, read-out: Pharmaron, THP1_IFNAR2 STING 24 h Luci Normalized: GeoMean EC50. The method, boiled down: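 THP1-Dual KO-IFNAR2 cells (2×10E6 cells/mL) with compounds at 0.0017-100 μM final, stimulated with 15 μM final 2′3′cGAMP delivered by Lipofectamine 2000; 24 h at 37 °C. Luciferase in supernatant read with QUANTI-Luc Plus; EC50 derived from luminescence.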
What is called EC50 is the concentration at which the effect is half-maximal. Turning to `O=C(Nc1c[nH]c2ccc(O[C@H]3C[C@@H](c4ccc(C(F)(F)F)cc4)C3)cc12)C1(C(F)(F)F)CC1` [Compound 353, 1-(trifluoromethyl)-N-(5-(cis-3-(4-(trifluoromethyl)phenyl)cyclobutoxy)-1H-indol-3-yl)cyclopropane-1-carboxamide], the EC50 lay within 200 to 1000 nM.

`CC(C)(C)C(=O)Nc1c[nH]c2ccc(O[C@H]3C[C@@H](c4ccc(C(F)(F)F)cc4)C3)cc12` [Compound 354, N-(5-(cis-3-(4-(trifluoromethyl)phenyl)cyclobutoxy)-1H-indol-3-yl)pivalamide]: the EC50 was 200 to 1000 nM. The result for `N#CC1CCC1C(=O)Nc1c[nH]c2ccc(O[C@H]3C[C@@H](c4ccc(C(F)(F)F)cc4)C3)cc12` (stereo partly drawn) [Compound 355, 2-cyano-N-(5-(cis-3-(4-(trifluoromethyl)phenyl)cyclobutoxy)-1H-indol-3-yl)cyclobutane-1-carboxamide] reads 200 to 1000 nM; that for `CC1(F)CC(C(=O)Nc2c[nH]c3ccc(O[C@H]4C[C@@H](c5ccc(C(F)(F)F)cc5)C4)cc23)C1` (stereo partly drawn) [Compound 356, 3-fluoro-3-methyl-N-(5-(cis-3-(4-(trifluoromethyl)phenyl)cyclobutoxy)-1H-indol-3-yl)cyclobutane-1-carboxamide], 200 to 1000 nM. The result for `CC1(C(=O)Nc2c[nH]c3ccc(O[C@H]4C[C@@H](c5ccc(C(F)(F)F)cc5)C4)cc23)CCOC1` (stereo partly drawn) [Compound 357, 3-methyl-N-(5-(cis-3-(4-(trifluoromethyl)phenyl)cyclobutoxy)-1H-indol-3-yl)tetrahydrofuran-3-carboxamide] reads 200 to 1000 nM; that for `CC1(C(=O)Nc2c[nH]c3ccc(O[C@H]4C[C@@H](c5ccc(C(F)(F)F)cc5)C4)cc23)CCCO1` (stereo partly drawn) [Compound 358, 2-methyl-N-(5-(cis-3-(4-(trifluoromethyl)phenyl)cyclobutoxy)-1H-indol-3-yl)tetrahydrofuran-2-carboxamide], 1000 to 5000 nM; that for `CC1(C)CC1C(=O)Nc1c[nH]c2ccc(O[C@H]3C[C@@H](c4ccc(C(F)(F)F)cc4)C3)cc12` (stereo partly drawn) [Compound 359, 2,2-dimethyl-N-(5-(cis-3-(4-(trifluoromethyl)phenyl)cyclobutoxy)-1H-indol-3-yl)cyclopropane-1-carboxamide], 40 to 200 nM.

As to `CC1(C(=O)Nc2c[nH]c3ccc(O[C@H]4C[C@@H](c5ccc(C(F)(F)F)cc5)C4)cc23)CCC1` [Compound 360, 1-methyl-N-(5-(cis-3-(4-(trifluoromethyl)phenyl)cyclobutoxy)-1H-indol-3-yl)cyclobutane-1-carboxamide], the EC50 is 200 to 1000 nM. The result for `CC1(C)CC(C(=O)Nc2c[nH]c3ccc(O[C@H]4C[C@@H](c5ccc(C(F)(F)F)cc5)C4)cc23)C1` [Compound 361, 3,3-dimethyl-N-(5-(cis-3-(4-(trifluoromethyl)phenyl)cyclobutoxy)-1H-indol-3-yl)cyclobutane-1-carboxamide] reads 40 to 200 nM; that for `N#CC1(C(=O)Nc2c[nH]c3ccc(O[C@H]4C[C@@H](c5ccc(C(F)(F)F)cc5)C4)cc23)CC1` [Compound 362, 1-cyano-N-(5-(cis-3-(4-(trifluoromethyl)phenyl)cyclobutoxy)-1H-indol-3-yl)cyclopropane-1-carboxamide], 200 to 1000 nM. In the case of `CC1(C(=O)Nc2c[nH]c3ccc(O[C@H]4C[C@@H](c5ccc(C(F)(F)F)cc5)C4)cc23)CCOCC1` [Compound 363, 4-methyl-N-(5-(cis-3-(4-(trifluoromethyl)phenyl)cyclobutoxy)-1H-indol-3-yl)tetrahydro-2H-pyran-4-carboxamide], the EC50 fell in the range of 200 to 1000 nM. The result for `O=C(Nc1c[nH]c2ccc(O[C@H]3C[C@@H](c4ccc(C(F)(F)F)cc4)C3)cc12)C1CC1(F)F` (stereo partly drawn) [Compound 364, 2,2-difluoro-N-(5-(cis-3-(4-(trifluoromethyl)phenyl)cyclobutoxy)-1H-indol-3-yl)cyclopropane-1-carboxamide] reads 40 to 200 nM; that for `O=C(Nc1c[nH]c2ccc(O[C@H]3C[C@@H](c4ccc(C(F)(F)F)cc4)C3)cc12)C1CCOCC1` [Compound 365, N-(5-(cis-3-(4-(trifluoromethyl)phenyl)cyclobutoxy)-1H-indol-3-yl)tetrahydro-2H-pyran-4-carboxamide], 40 to 200 nM.

For `O=C(Nc1c[nH]c2ccc(OCC[C@@H]3C[C@@H]4CN(CC(F)(F)F)C[C@@H]4C3)cc12)C1(C(F)(F)F)CC1` [Compound 366, N-(5-(2-((3aR,5r,6aS)-2-(2,2,2-trifluoroethyl)octahydrocyclopenta[c]pyrrol-5-yl)ethoxy)-1H-indol-3-yl)-1-(trifluoromethyl)cyclopropane-1-carboxamide], the EC50 lay within 200 to 1000 nM. The result for `CC(C)(C)C(=O)Nc1c[nH]c2ccc(OCC[C@@H]3C[C@@H]4CN(CC(F)(F)F)C[C@@H]4C3)cc12` [Compound 367, N-(5-(2-((3aR,5r,6aS)-2-(2,2,2-trifluoroethyl)octahydrocyclopenta[c]pyrrol-5-yl)ethoxy)-1H-indol-3-yl)pivalamide] reads 200 to 1000 nM. Then `CC1(C(=O)Nc2c[nH]c3ccc(OCC[C@@H]4C[C@@H]5CN(CC(F)(F)F)C[C@@H]5C4)cc23)CCC1` [Compound 369, 1-methyl-N-(5-(2-((3aR,5r,6aS)-2-(2,2,2-trifluoroethyl)octahydrocyclopenta[c]pyrrol-5-yl)ethoxy)-1H-indol-3-yl)cyclobutane-1-carboxamide], with 200 to 1000 nM. Then `N#CC1(C(=O)Nc2c[nH]c3ccc(OCC[C@@H]4C[C@@H]5CN(CC(F)(F)F)C[C@@H]5C4)cc23)CC1` [Compound 370, 1-cyano-N-(5-(2-((3aR,5r,6aS)-2-(2,2,2-trifluoroethyl)octahydrocyclopenta[c]pyrrol-5-yl)ethoxy)-1H-indol-3-yl)cyclopropane-1-carboxamide], with 200 to 1000 nM.

In the case of `CC1(C(=O)Nc2c[nH]c3ccc(OCCc4ccc(C(F)(F)F)nc4)cc23)COC1` [Compound 372, 3-methyl-N-(5-(2-(6-(trifluoromethyl)pyridin-3-yl)ethoxy)-1H-indol-3-yl)oxetane-3-carboxamide], the EC50 was 1000 to 5000 nM. The result for `O=C(Nc1c[nH]c2ccc(OCCc3ccc(C(F)(F)F)nc3)cc12)C1COC1` [Compound 373, N-(5-(2-(6-(trifluoromethyl)pyridin-3-yl)ethoxy)-1H-indol-3-yl)oxetane-3-carboxamide] reads 1000 to 5000 nM; that for `CC(=O)Nc1c[nH]c2cc(F)c(CCOc3ccc(C(F)(F)F)cc3)c(F)c12` [Compound 375, N-(4,6-difluoro-5-(2-(4-(trifluoromethyl)phenoxy)ethyl)-1H-indol-3-yl)acetamide], 1000 to 5000 nM; that for `CC1(C(=O)Nc2c[nH]c3ccc(OC4CC(c5ccc(C(F)(F)F)nc5)C4)cc23)CC1` (stereo not shown) [Compound 376, 1-methyl-N-(5-(3-(6-(trifluoromethyl)pyridin-3-yl)cyclobutoxy)-1H-indol-3-yl)cyclopropane-1-carboxamide], 200 to 1000 nM. Then `CC(=O)Nc1c[nH]c2ccc(CCOC3CN(CC(F)(F)F)C3)cc12` [Compound 377, N-(5-(2-((1-(2,2,2-trifluoroethyl)azetidin-3-yl)oxy)ethyl)-1H-indol-3-yl)acetamide], with 5000 to 100000 nM; and `CC1(C(=O)Nc2c[nH]c3ccc(O[C@H]4C[C@@H](c5ccc(C(F)(F)F)cc5)C4)cc23)COC1` [Compound 378, 3-methyl-N-(5-(cis-3-(4-(trifluoromethyl)phenyl)cyclobutoxy)-1H-indol-3-yl)oxetane-3-carboxamide], with 200 to 1000 nM; and `CC1(C(=O)Nc2c[nH]c3ccc(OCC[C@@H]4C[C@@H]5CN(CC(F)(F)F)C[C@@H]5C4)cc23)CC1` [Compound 379, 1-methyl-N-(5-(2-((3aR,5r,6aS)-2-(2,2,2-trifluoroethyl)octahydrocyclopenta[c]pyrrol-5-yl)ethoxy)-1H-indol-3-yl)cyclopropane-1-carboxamide], with 200 to 1000 nM. Then `CC1(F)CC(C(=O)Nc2c[nH]c3ccc(OCCc4ccc(C(F)(F)F)cc4)cc23)C1` (stereo not shown) [Compound 380, 3-fluoro-3-methyl-N-(5-(4-(trifluoromethyl)phenethoxy)-1H-indol-3-yl)cyclobutane-1-carboxamide], with 40 to 200 nM; and `O=C(Nc1c[nH]c2ccc(OCc3ccc(C(F)(F)F)cc3)cc12)C1COC1` [Compound 381, N-(5-((4-(trifluoromethyl)benzyl)oxy)-1H-indol-3-yl)oxetane-3-carboxamide], with 200 to 1000 nM; and `O=C(Nc1c[nH]c2ccc(OCC[C@@H]3C[C@@H]4CN(CC(F)(F)F)C[C@@H]4C3)cc12)C1COC1` [Compound 383, N-(5-(2-((3aR,5r,6aS)-2-(2,2,2-trifluoroethyl)octahydrocyclopenta[c]pyrrol-5-yl)ethoxy)-1H-indol-3-yl)oxetane-3-carboxamide], with 200 to 1000 nM. For the molecule `O=C(Nc1c[nH]c2ccc(CCCn3cc(C(F)(F)F)cn3)cc12)C1CC1` [Compound 384, N-(5-(3-(4-(trifluoromethyl)-1H-pyrazol-1-yl)propyl)-1H-indol-3-yl)cyclopropanecarboxamide], the EC50 lay within 200 to 1000 nM. The result for `CC(=O)Nc1c[nH]c2ccc(OCCc3cnn(C(F)F)c3)cc12` [Compound 385, N-(5-(2-(1-(difluoromethyl)-1H-pyrazol-4-yl)ethoxy)-1H-indol-3-yl)acetamide] reads 5000 to 100000 nM. The result for `CC(=O)Nc1c[nH]c2ccc(CCOc3ccc4c(c3)N(Cc3ccccc3)C(=O)CS4)cc12` [Compound 386, N-(5-(2-((4-benzyl-3-oxo-3,4-dihydro-2H-benzo[b][1,4]thiazin-6-yl)oxy)ethyl)-1H-indol-3-yl)acetamide] reads 1000 to 5000 nM. For the molecule `O=C(Nc1c[nH]c2ccc(CCOc3ccc(C(F)(F)F)cc3)cc12)C1(C(F)(F)F)CC1` [Compound 387, 1-(trifluoromethyl)-N-(5-(2-(4-(trifluoromethyl)phenoxy)ethyl)-1H-indol-3-yl)cyclopropane-1-carboxamide], the concentration for a half-maximal effect (EC50) was in the range of 200 to 1000 nM.
